assay: acute oral toxicity test LD50 (50 percent lethal dose); type: in vivo, rats or guinea pigs; conditions: worked out from LD50 in oral administration
Source text: A fixing solution according to the present invention includes aliphatic ester, held in a soluble state with respect to a solvent and having solubility or a swelling property with respect to a resin included in a toner. Thereby, a fixing solution, from which generation of odor is reduced, and by which a not-yet-fixed toner can be rapidly fixed, can be obtained. The aliphatic ester is applied as a softener softening a toner by dissolving or swelling the resin included in the toner. ‘Held in a soluble state’ means as being held in a size on the order of a molecule size on the order of […]. The aliphatic ester preferably has acute oral toxicity test LD50 larger than 3 g/kg in a viewpoint of a safety of humans.
For the first problem, LD50 is applied as a safety index, and a fixing solution was produced in such a manner that each of a solvent and a solute has LD50 not less than 3.0 g/kg. LD50 is a toxicity index of American Industrial Hygiene Association, and means a 50 percent lethal dose. This corresponds to an amount such that, 50% of the number of individuals are dead when a certain amount of test solute or a sample to test is given to rats or guinea pigs. […] Since this means that a 50% lethal dose for a weight of individuals of 1 kg is not less than 15 g, a presumable lethal dose of silicone oil for a human of 65 kg is not less than […] accordingly. […]

Molecule	presumable lethal dose for a human of 65 kg
dimethylsiloxane	not less than 945 g

assay: not given; conditions: acute oral toxicity; cited from earlier work

Molecule	LD50 [mg/kg]
CCCCCCCCCCCC [n-dodecane]	20000
CCCCCCCCCCCCCC(=O)OC(C)C [isopropylmyristate]	8000
CCOCCOC(=O)CCC(=O)OCCOCC [diethoxy ethyl succinate]	5000
CCCCCC [n-hexane]	28700
CCCCCCCCCCCCCCCC(=O)OC(C)C [isopropyl palmitate, reference compound]	8000
CCCCCCCCCCCC(=O)OCCCCCC [hexyl laureate]	8000
CCCCCCCC(=O)OC [methylcaprylate, reference compound]	3000
[Cl-].[Na+] [salt, reference compound]	3000
CCO [ethanol]	20000
CCCCCCCCCCCCCCCC(=O)OCC(C)C [isobutyl palmitate, reference compound]	8000

same assay, conditions: acute oral toxicity; listed as dimethyl silicone oil; cited from earlier work

Molecule	LD50
dimethylsiloxane	not less than 15 g/kg

From patent publication US7794835B2, “Fixing solution, capsule structure, fixing method, fixing device and image forming apparatus” (Ricoh Company, Ltd., priority 2004, dated 2010)
